BindingDB's records for doi:10.1021/jm00116a003 (Virginia Commonwealth University, 1992)
pKi: −log10 of the molar value.

Assays:
[1] = The compound was tested for its binding affinity towards sigma receptor in guinea pig brain membranes.
[2] = as above; remark: listed apart in the source

Q: With `O=C(c1ccccc1)N1CCNCC1` as the molecule, how does the pKi [1] read?
A: The pKi was 4.94.

Q: With `COc1ccccc1C1(O)CCNCC1` as the molecule, how does the pKi [1] read?
A: Its pKi is 4.85.

Q: With `Clc1ccc(C2=CCN(CCCCc3ccccc3)CC2)cc1` as the molecule, how does the pKi [2] read?
A: Its pKi is 8.39.

Q: With `FC(F)(F)c1cccc(N2CCN(CCCCc3ccccc3)CC2)c1` as the molecule, how does the pKi [1] read?
A: The pKi was 8.27.

Q: With `c1ccc(CCCCN2CCN(c3ccccc3)CC2)cc1` as the molecule, how does the pKi [1] read?
A: The pKi was 8.59.

Q: With `Clc1cccc(N2CCN(CCc3ccccc3)CC2)c1` as the molecule, how does the pKi [1] read?
A: The pKi was 7.96.

Q: With `c1ccc(CCCN2CCN(c3ccc4ccccc4c3)CC2)cc1` as the molecule, how does the pKi [1] read?
A: The pKi was 8.55.

Q: With `Clc1ccc(N2CCN(CCCc3ccccc3)CC2)cc1` as the molecule, how does the pKi [1] read?
A: Its pKi is 8.54.
